From ChEMBL document CHEMBL1158288, “Antiinflammatory activity of coumarins from Santolina oblongifolia” (J Nat Prod, 1996)

Test: Antiinflammatory activity in NMRI mouse macrophages assessed as inhibition of A23187-induced LTC4 release at 25 uM by Ellman's method relative to control
Assay type: functional
Conditions: Macrophage
`O=c1ccc2cc(O)c(O)cc2o1` [ESCULETIN] showed an inhibition at 25 µM of 71.2%.
Work on `COc1ccc2ccc(=O)oc2c1` [HERNIARIN] yielded an inhibition at 25 µM of 2.94%.
For `COc1cc2ccc(=O)oc2cc1O[C@@H]1O[C@H](CO)[C@@H](O)[C@H](O)[C@H]1O` [SCOPOLIN], the inhibition at 25 µM was 55%.
With `COc1cc2ccc(=O)oc2cc1O` [SCOPOLETIN] the inhibition at 25 µM was 8.8%.

Test: Antiinflammatory activity in NMRI mouse macrophages assessed as inhibition of A23187-induced PGE2 release at 100 uM by Ellman's method relative to control
Assay type: functional
Conditions: Macrophage
With `O=c1ccc2cc(O)c(O)cc2o1` [ESCULETIN] the inhibition at 100 µM was 71.7%.
`COc1ccc2ccc(=O)oc2c1` [HERNIARIN] gave an inhibition at 100 µM of 65.7%.
`COc1ccc2c(c1)c(CC(=O)O)c(C)n2C(=O)c1ccc(Cl)cc1` [INDOMETHACIN] showed an inhibition at 100 µM of 78.1%.
Compound `COc1cc2ccc(=O)oc2cc1O[C@@H]1O[C@H](CO)[C@@H](O)[C@H](O)[C@H]1O` [SCOPOLIN] has an inhibition at 100 µM of 75.7%.
In the case of `COc1cc2ccc(=O)oc2cc1O` [SCOPOLETIN], the inhibition at 100 µM is reported as 77.4%.

Test: Antiinflammatory activity in NMRI mouse macrophages assessed as inhibition of A23187-induced LTC4 release by Ellman's method
Assay type: functional, cell-based
Conditions: macrophage
`O=c1ccc2cc(O)c(O)cc2o1` [ESCULETIN] showed an IC50 of 18 µmol.
Compound `CC(Cc1ccc(O)c(O)c1)C(C)Cc1ccc(O)c(O)c1` (configuration not stated) [NORDIHYDROGUAIARETIC ACID] has an IC50 of 6 µmol.

Test: Antiinflammatory activity in NMRI mouse macrophages assessed as inhibition of A23187-induced LTC4 release at 100 uM by Ellman's method relative to control
Assay type: functional
Conditions: Macrophage
In the case of `CC(Cc1ccc(O)c(O)c1)C(C)Cc1ccc(O)c(O)c1` (configuration not stated) [NORDIHYDROGUAIARETIC ACID], the inhibition at 100 µM is reported as 78.7%.

Test: Antiinflammatory activity in NMRI mouse macrophages assessed as inhibition of A23187-induced PGE2 release by Ellman's method
Assay type: functional, cell-based
Conditions: macrophage
With `O=c1ccc2cc(O)c(O)cc2o1` [ESCULETIN] the IC50 was 11 µmol.
With `COc1ccc2ccc(=O)oc2c1` [HERNIARIN] the IC50 was 84 µmol.
In the case of `COc1ccc2c(c1)c(CC(=O)O)c(C)n2C(=O)c1ccc(Cl)cc1` [INDOMETHACIN], the IC50 is reported as 22 µmol.
In the case of `COc1cc2ccc(=O)oc2cc1O[C@@H]1O[C@H](CO)[C@@H](O)[C@H](O)[C@H]1O` [SCOPOLIN], the IC50 is reported as 77 µmol.
Compound `COc1cc2ccc(=O)oc2cc1O` [SCOPOLETIN] has an IC50 of 5 µmol.
